Assay results taken from BindingDB's records for doi:10.7270/Q28S4S3D (n/a, 1997).

Biological target: T1, E-selectin (Homo sapiens, UniProt P16581)
T1 sequence (P16581 whole entry): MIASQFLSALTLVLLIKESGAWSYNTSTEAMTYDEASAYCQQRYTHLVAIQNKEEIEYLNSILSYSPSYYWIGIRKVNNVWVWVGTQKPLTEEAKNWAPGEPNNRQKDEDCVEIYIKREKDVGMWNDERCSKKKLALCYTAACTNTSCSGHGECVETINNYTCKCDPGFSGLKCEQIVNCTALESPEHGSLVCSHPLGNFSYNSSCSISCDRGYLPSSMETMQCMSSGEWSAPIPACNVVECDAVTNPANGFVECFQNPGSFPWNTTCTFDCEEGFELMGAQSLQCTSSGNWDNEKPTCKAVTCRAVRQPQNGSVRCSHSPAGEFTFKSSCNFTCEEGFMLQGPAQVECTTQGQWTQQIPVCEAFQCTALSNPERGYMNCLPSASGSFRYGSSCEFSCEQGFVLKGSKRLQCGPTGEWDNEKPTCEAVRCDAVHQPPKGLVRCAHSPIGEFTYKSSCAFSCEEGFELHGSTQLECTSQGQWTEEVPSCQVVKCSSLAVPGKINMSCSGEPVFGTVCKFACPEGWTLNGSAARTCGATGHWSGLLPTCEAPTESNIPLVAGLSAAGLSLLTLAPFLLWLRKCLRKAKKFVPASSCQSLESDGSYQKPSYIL
Assay: Tested in vitro to inhibit cell adhesion of HL-60 cells to recombinant human soluble Selectin E

| IC50 [µM] | Compound |
| --- | --- |
| 90.2 | C=CC(=O)NCCCCCCO[C@@H]1O[C@@H](CO)[C@@H](O[C@@H]2O[C@@H](CO)[C@H](O)[C@H](O[C@]3(C(=O)O)C[C@@H](O)[C@@H](NC(C)=O)[C@H]([C@H](O)[C@H](O)CO)O3)[C@@H]2O)[C@H](O[C@@H]2O[C@@H](C)[C@@H](O)[C@H](O)[C@@H]2O)[C@@H]1NC(=O)c1ccc2ccccc2c1 |
| 1760 | CCO[C@@H]1O[C@@H](CO)[C@@H](O[C@@H]2O[C@@H](CO)[C@H](O)[C@H](O[C@]3(C(=O)O)C[C@@H](O)[C@@H](NC(C)=O)[C@H]([C@H](O)[C@H](O)CO)O3)[C@@H]2O)[C@H](O[C@@H]2O[C@@H](C)[C@@H](O)[C@H](O)[C@@H]2O)[C@@H]1NC(C)=O |
